# In US9938238B2, “Anti-auxin compounds” (priority 2015, dated 2018):
# Entries after “also recorded” stand apart in the source; their conditions may differ.
# Columns and labels:
# Col-0 wt seedlings [1] = test: Seedling triple response of ethylene-treated etiolated Col-0 wt seedlings; assay type: in vivo, Arabidopsis
# Procedure: (§1) For screening for chemicals that reduce ethylene response, Arabidopsis ctr1-3 seeds were planted on a microtiter plate containing PNS media in the presence of individual chemicals (50 μM concentration of each) from the Microsource Spectrum Collection. Seedlings were grown in the dark for 4 d after which they were scored for manifestation of the ethylene responsive triple response. For all other growth experiments, seedlings were planted on PNS media supplemented with the relevant chemical (Deslauriers and Larsen, 2010). For conditions requiring pamoic acid, media was supplemented with Pamoic acid disodium salt (Sigma Life Science, St. Louis, Mo.). Measurement of ethylene production was conducted as previously described (Deslauriers and Larsen, 2010).
# For Col-0 wt, seedlings were grown in either the presence or absence of 5 μM AgNO3, an inhibitor of ethylene perception, or 100 μL L^−1 ethylene, which is a concentration that results in maximal response in etiolated seedlings. […] It should be noted that the phenotype of PA-treated seedlings in the presence of saturating ethylene is strikingly similar to ethylene-treated wei8 and tart loss-of-function mutants, which are deficient in auxin biosynthesis (Stepanova et al., 2008).
# ctr1-3 seedlings = test: Seedling triple response of constitutive ethylene response mutant ctr1-3 (library screen and follow-up); assay type: in vivo, Arabidopsis
# Procedure: as §1
# A chemical library screen was performed in which etiolated seedlings of the constitutive ethylene response mutant, ctr1-3, were grown in air for 4 d in the presence of chemicals from the Microsource Spectrum Collection, a bioactive and natural compound library consisting of 2000 different compounds. ctr1-3 seedlings were scored for presentation of the ethylene regulated seedling triple response, consisting of severe hypocotyl and root shortening and exaggerated apical hook formation.
# [2] = tested on: etiolated Col-0 wt seedlings; test: Measurement of ethylene biosynthesis by gas chromatography; assay type: in vivo, Arabidopsis
# Procedure: as §1
# Col-0 wt seedlings [3] = test: Root length dose response; assay type: in vivo, Arabidopsis
# Procedure: as §1
# Auxin is required for normal root growth since at physiological concentrations it promotes cell elongation.
# Col-0 wt seedlings [4] = test: Blockage of auxin dependent inhibition of root growth; assay type: in vivo, Arabidopsis
# Procedure: For screening for chemicals that reduce ethylene response, Arabidopsis ctr1-3 seeds were planted on a microtiter plate containing PNS media in the presence of individual chemicals (50 μM concentration of each) from the Microsource Spectrum Collection. Seedlings were grown in the dark for 4 d after which they were scored for manifestation of the ethylene responsive triple response. For all other growth experiments, seedlings were planted on PNS media supplemented with the relevant chemical (Deslauriers and Larsen, 2010). For conditions requiring pamoic acid, media was supplemented with Pamoic acid disodium salt (Sigma Life Science, St. Louis, Mo.). Measurement of ethylene production was conducted as previously described (Deslauriers and Larsen, 2010). […]
# Col-0 wt seedlings [5] = test: Root gravitropism on vertical agar plates; assay type: in vivo, Arabidopsis
# DR5::GUS = test: GUS analysis of auxin responsive DR5::GUS reporter line; assay type: in vivo, Arabidopsis
# Procedure: GUS analysis of DR5::GUS lines was performed as previously described (Ni et al., 2001).
# Auxin responsiveness has also been assessed using the Arabidopsis DR5::GUS transgenic line in which several auxin response elements are fused upstream of the GUS reporter gene (Ni et al., 2001). Normally, treatment of DR5::GUS lines with exogenous auxin leads to increased GUS levels, which can be visualized through accumulation of blue color upon adding X-Gluc.
# [6] = tested on: Col-0 wt, tir1-1, afb1-5, afb2-3, afb3-5, afb4-1 seedlings; test: Hypocotyl and root elongation of auxin receptor loss-of-function mutants; assay type: in vivo, Arabidopsis; details: tir1-1, increasing range of Tolmetin
# Excerpt: Loss of proper auxin signaling as in the dominant shy2-2 mutant (Tian et al., 2003), which fails to have proper turnover of the IAA3 repressor of auxin response, leads to severe hypocotyl shortening for etiolated seedlings (Robles et al., 2012). […] It was of interest to determine what effect PA might have on hypocotyl and root elongation for loss-of-function mutants representing members of the Arabidopsis family of auxin receptors. It was predicted that mutants for receptors with a more prominent role in auxin dependent maintenance of organ elongation would be more severely affected by PA treatment due to the additive effect of the loss-of-function mutation with the effect of this anti-auxinic compound.
# For analysis of the role of the various receptors in hypocotyl elongation, Col-0 wt and loss-of-function mutants for all of the auxin receptors (Si-Ammour et al., 2011) except AFB5 were grown for 4 d in the dark in the absence or presence of 30 μM PA on media supplemented with 5 μM AgNO3, which was included to eliminate the negative effect of ethylene on hypocotyl elongation.
# A similar result was found for tir1-1 roots. For this experiment, seedlings were grown in the dark for 4 d in the absence or presence of 30 μM PA after which root length was measured. […] This was confirmed by analysis of growth of Col-0 wt and tir1-1 roots across a range of PA concentrations.
# TIR1-IAA7 complex = biological target: T1, TIR1-IAA7 complex (Arabidopsis thaliana, UniProt Q570C0); test: In vitro assembly of the TIR1-IAA7 complex in the presence of auxin; assay type: biochemical
# T1 sequence (Q570C0 1-594): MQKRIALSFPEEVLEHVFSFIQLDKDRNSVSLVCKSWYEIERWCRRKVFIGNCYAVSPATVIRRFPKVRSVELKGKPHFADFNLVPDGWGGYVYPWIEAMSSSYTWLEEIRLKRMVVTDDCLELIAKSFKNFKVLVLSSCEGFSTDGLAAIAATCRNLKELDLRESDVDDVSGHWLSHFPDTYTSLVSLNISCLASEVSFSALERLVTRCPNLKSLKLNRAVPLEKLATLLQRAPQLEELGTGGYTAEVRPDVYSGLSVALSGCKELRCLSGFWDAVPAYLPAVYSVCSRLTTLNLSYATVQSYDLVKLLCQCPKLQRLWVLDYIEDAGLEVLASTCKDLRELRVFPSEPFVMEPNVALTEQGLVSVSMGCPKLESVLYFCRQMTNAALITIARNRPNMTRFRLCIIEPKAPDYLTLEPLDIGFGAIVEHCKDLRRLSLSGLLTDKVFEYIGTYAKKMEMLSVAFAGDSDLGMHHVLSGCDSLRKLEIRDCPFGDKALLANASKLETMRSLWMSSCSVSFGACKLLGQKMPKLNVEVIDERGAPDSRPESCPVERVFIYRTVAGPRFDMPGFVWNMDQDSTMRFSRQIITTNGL
# Excerpt: It should be noted that based on our growth analysis with various loss-of-function mutants for auxin receptors, it is likely that one or more of the other receptors are affected to a greater extent than TIR1 by each of these chemicals.
# [7] = etiolated ctr1-3 in air, 4 d, 50 μM of each chemical
# [8] = 5 days in the light, 50 micromolar Tolmetin (FIG. 7)
compound,measurement,setting,value
Cc1ccc(C(=O)c2ccc(CC(=O)O)n2C)cc1 [Tolmetin],seedling length independent of ethylene,"Col-0 wt seedlings [1]; Col-0 wt with 5 μM AgNO3, 4 d dark, 10 μM PA or Tolmetin up to 30 μM",negative effect was not seen
same,manifestation of the ethylene dependent seedling triple response (loss of apical hook formation),"Col-0 wt seedlings [1]; Tolmetin 20-100 micromolar, Col-0 wt treated with saturating ethylene (FIG. 1)",partially blocks
same,apical hook formation,"Col-0 wt seedlings [1]; etiolated Col-0 wt, 100 μL L−1 (saturating) ethylene, 4 d dark, 10 μM PA or Tolmetin up to 30 μM",prevent apical hook formation; also recorded: nearly complete loss of apical hook formation
same,root length / organ specificity of effect in ethylene treated seedlings,"Col-0 wt seedlings [1]; etiolated Col-0 wt, saturating ethylene, 4 d dark, 10 μM PA or Tolmetin up to 30 μM",specific to hypocotyls
same,ethylene-dependent root growth inhibition,"ctr1-3 seedlings; ctr1-3, 10 μM PA or 30 micromolar Tolmetin",did not prevent the severe root growth inhibition; also recorded: does not affect ethylene-dependent root growth inhibition
same,root growth of light grown ctr1-3,"ctr1-3 seedlings; ctr1-3 grown in the light, increasing concentrations of Tolmetin (FIG. 3)",No positive effect on root growth was observed
same,apical hook formation,"ctr1-3 seedlings; dark grown ctr1-3, 10 μM PA or 30 μM Tolmetin",prevent apical hook formation; also recorded: fully eliminated apical hook formation; also recorded: nearly complete loss of apical hook formation
same,apical hook formation in chemical library screen,ctr1-3 seedlings; [7],blocked apical hook formation
same,root length in chemical library screen,ctr1-3 seedlings; [7],measurably longer roots
same,ethylene biosynthesis,"[2]; 10 μM PA or 30 μM Tolmetin, 96 h, ethylene generated in the last 18 h",no measurable effect on ethylene biosynthesis
same,ethylene biosynthesis,"[2]; 50 micromolar Tolmetin, 4 days in the dark (FIG. 4)",does not reduce ethylene biosynthesis
same,root length at increasing concentrations,"Col-0 wt seedlings [3]; Col-0 wt, 7 d, increasing concentrations, versus untreated control roots",severe inhibition of root length
same,root growth at low concentrations,"Col-0 wt seedlings [3]; Col-0 wt, 7 d, low concentrations",stimulatory effect
same,root length,"Col-0 wt seedlings [3]; light, increasing concentrations of Tolmetin, 5 days (FIG. 5)",inhibitory to root growth at high concentrations
same,inhibitory effect of Tolmetin on root length on addition of IAA,"Col-0 wt seedlings [4]; 5 days, 50 micromolar Tolmetin plus 300 nM IAA (FIG. 6)",almost completely overcome
same,"root length, Tolmetin alone","Col-0 wt seedlings [4]; 5 days, 50 micromolar Tolmetin, 0 nM IAA (FIG. 6)",significant root growth inhibition
same,"root length, anti-auxin alone","Col-0 wt seedlings [4]; light, 7 d, 30 μM PA or 50 μM Tolmetin alone versus untreated roots",significantly inhibited
same,inhibitory effects of exogenous auxin on root length,"Col-0 wt seedlings [4]; light, 7 d, 30 μM PA with 150 nM NAA, 50 μM Tolmetin with 300 nM IAA",greatly reduced the inhibitory effects of exogenous auxin
same,direction of root growth (gravitropism),"Col-0 wt seedlings [5]; 4 d, vertical agar plates, 30 μM PA or 50 μM Tolmetin",grew in a random manner that was independent of gravity
same,direction of root growth (gravitropism),Col-0 wt seedlings [5]; [8],agravitropic root growth
same,root hairs,Col-0 wt seedlings [5]; [8],completely lacked root hairs
same,dark color (GUS) in the absence of exogenous auxin,"DR5::GUS; 0 versus 100 micromolar Tolmetin, no exogenous auxin (FIG. 8)",comparable level of dark color
same,staining / auxin dependent lateral root formation,"DR5::GUS; 100 μM Tolmetin, 750 nM IAA (FIG. 8)",prevented staining in the area of lateral root development; also recorded: completely blocks auxin dependent lateral root formation
same,auxin dependent accumulation of GUS in root tips,"DR5::GUS; 100 μM Tolmetin, exposure to IAA",blocked auxin dependent accumulation of GUS in root tips
same,root growth sensitivity of tir1-1,[6],hypersensitive
same,blockage of assembly of the TIR1-IAA7 complex,TIR1-IAA7 complex,not been possible to demonstrate
